# Experiments:
# Test in all cases: relative viability (nuclei count vs DMSO), 5 days (fraction); higher = more cells survive
# kb NB 142-70 + Olaparib = compound: C1CSC2=C(C(=O)N1)SC3=C2C=C(C=C3)O [kb NB 142-70] + O=C(c1cc(Cc2n[nH]c(=O)c3ccccc23)ccc1F)N1CCN(C(=O)C2CC2)CC1 [Olaparib] (partner 8 µM)
# In short: (§1)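 A single step with final 0.05% Triton X-100, 1% formaldehyde and 1 ug/ml Hoechst fixed the cells and stained nuclei 5 days after treatment. Lung cancer cell lines in 1536-well plates had been treated by pin tool the day after seeding with one drug alone or a fixed anchor-drug dose plus five library-drug doses (not always all listed) in √10 steps, and nuclei were counted on 4× images. Relative viability is the ratio of nuclei in treated wells to nuclei in vehicle wells, taken as the median of duplicate plates.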
# [1] = compound: NCC(=O)Nc1ccc(-n2nc(C(F)(F)F)cc2-c2ccc3c(ccc4ccccc43)c2)cc1 + COc1cc2c(Oc3ccc(NC(=O)C4(C(=O)Nc5ccc(F)cc5)CC4)cc3F)ccnc2cc1OCCCN1CCOCC1 [Foretinib] (partner 0.25 µM)
# In short: as §1
# [2] = compound: NCC(=O)Nc1ccc(-n2nc(C(F)(F)F)cc2-c2ccc3c(ccc4ccccc43)c2)cc1 + C[C@]1(O)C[C@@H](c2nc(-c3ccc4ccc(-c5ccccc5)nc4c3)c3c(N)nccn32)C1 [Linsitinib] (partner 1 µM)
# In short: as §1
# [3] = compound: NCC(=O)Nc1ccc(-n2nc(C(F)(F)F)cc2-c2ccc3c(ccc4ccccc43)c2)cc1 + Nc1ncn([C@H]2C[C@H](O)[C@@H](CO)O2)c(=O)n1 [Decitabine] (partner 2 µM)
# In short: as §1
Cell Line,relative viability (kb NB 142-70 + Olaparib; first compound 0.1 µM),relative viability (kb NB 142-70 + Olaparib; first compound 1 µM),relative viability (kb NB 142-70 + Olaparib; first compound 3.162 µM),relative viability ([1]; first compound 0.02 µM),relative viability ([1]; first compound 0.06325 µM),relative viability ([1]; first compound 0.2 µM),relative viability ([1]; first compound 0.6325 µM),relative viability ([1]; first compound 2 µM),relative viability ([2]; first compound 0.02 µM),relative viability ([2]; first compound 0.06325 µM),relative viability ([2]; first compound 0.2 µM),relative viability ([2]; first compound 0.6325 µM),relative viability ([2]; first compound 2 µM),relative viability ([3]; first compound 0.02 µM),relative viability ([3]; first compound 0.06325 µM),relative viability ([3]; first compound 0.2 µM),relative viability ([3]; first compound 0.6325 µM),relative viability ([3]; first compound 2 µM)
NCI-H1437,0.625,0.663,0.57,1.26,1.31,1.25,1.28,1.22,0.944,1.05,1.07,1.1,1.02,0.563,0.576,0.634,0.616,0.547
NCI-H1651,0.181,0.181,0.187,0.758,0.823,0.805,0.789,0.803,0.945,1.05,0.963,1.01,1.01,0.594,0.351,0.591,0.619,0.613
NCI-H1666,0.73,0.78,0.823,0.975,1.01,0.998,0.963,0.932,0.703,0.993,0.861,0.912,0.844,0.771,0.567,0.778,0.746,0.652
NCI-H1734,0.586,0.509,0.304,0.795,0.875,0.919,0.766,0.9,0.916,0.856,0.988,0.823,0.925,0.545,0.497,0.488,0.485,0.534
NCI-H1755,0.934,0.809,0.883,0.928,0.882,0.947,0.921,0.905,1.08,1.01,0.98,0.991,0.995,0.692,0.739,0.686,0.701,0.727
NCI-H1793,0.88,1.02,0.508,0.622,0.661,0.562,0.6,0.92,0.826,0.799,0.893,0.966,0.962,0.518,0.459,0.549,0.494,0.487
NCI-H1915,0.286,0.236,0.145,1.12,1.12,1.09,1.06,1.11,1.05,1.07,1.17,1.09,1.1,0.272,0.275,0.276,0.262,0.256
NCI-H1944,0.434,0.414,0.482,0.795,0.841,0.827,0.888,1.01,1.14,1.21,1.16,1.11,1.3,0.492,0.43,0.436,0.392,0.44
NCI-H1975,0.81,0.883,0.35,1.03,0.94,1.08,1,0.984,0.927,0.92,0.973,0.983,0.921,0.407,0.39,0.43,0.404,0.464
NCI-H1993,1.04,0.911,1.04,0.861,0.819,0.814,0.796,0.835,0.81,0.767,0.718,0.843,0.724,0.558,0.634,0.663,0.611,0.64
NCI-H2009,0.721,0.724,0.611,1.27,1.19,1.38,1.14,1.25,1.22,1.18,1.23,1.21,1.12,0.337,0.457,0.409,0.349,0.408
NCI-H2023,0.51,0.504,0.312,1.01,0.905,0.947,0.731,0.859,0.805,0.682,0.712,0.623,0.707,0.229,0.211,0.23,0.209,0.219
NCI-H2085,0.742,0.727,0.487,1.02,1.05,1.07,0.812,1.1,0.964,0.943,1.03,1.03,0.932,0.577,0.519,0.592,0.556,0.534
NCI-H2087,0.506,0.589,0.411,0.981,0.992,1.23,1.11,1.15,0.867,1.02,1.03,1.1,0.988,0.249,0.245,0.246,0.282,0.251
NCI-H2126,0.928,0.899,0.816,1.23,1.1,1.3,1.08,1.11,0.7,0.745,0.687,0.664,0.763,0.568,0.568,0.583,0.596,0.572
